For one compound, Kd results are on record in paper PMC8220105 (Computational and Structural Biotechnology Journal, 2021).

Usually pKd stands for −log10 of the Kd, conventionally taken in molar units. Higher therefore signals a small Kd.

pKd: −log10 of the molar value.

The assay deals with p38α MAPK (Homo sapiens, UniProt Q16539). Kind of assay: microscale thermophoresis. It is filed as binding. (In MST a laser heats a spot of the sample, and binding alters the fluorescence response.)
Sequence of p38α MAPK (Q16539 2-360): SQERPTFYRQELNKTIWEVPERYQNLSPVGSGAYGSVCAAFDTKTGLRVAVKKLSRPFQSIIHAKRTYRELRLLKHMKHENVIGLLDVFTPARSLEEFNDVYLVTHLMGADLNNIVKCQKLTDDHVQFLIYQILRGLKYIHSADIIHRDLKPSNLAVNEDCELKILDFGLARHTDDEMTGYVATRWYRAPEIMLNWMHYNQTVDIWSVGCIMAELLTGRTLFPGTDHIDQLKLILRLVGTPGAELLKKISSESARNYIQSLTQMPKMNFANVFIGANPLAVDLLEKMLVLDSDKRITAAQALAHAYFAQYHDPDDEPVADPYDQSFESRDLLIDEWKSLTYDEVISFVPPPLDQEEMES

`COC(=O)[C@@]12OC[C@]34[C@H]([C@@H](O)[C@@H]1O)[C@@]1(C)CC(=O)C(O)=C(C)[C@@H]1C[C@H]3OC(=O)[C@H](OC(=O)CC(C)C)[C@@H]24` [bruceine A] had a pKd of 7.51.
